From the RepoRT retention time repository

Test: HILIC, Waters ACQUITY UPLC BEH Amide, 100 × 2.1 mm, 1.7 µm; A: water + 0.125% formic acid + 10 mM ammonium formate; B: 5% water + 95% acetonitrile + 0.125% formic acid + 10 mM ammonium formate; gradient (min/%B) 0/100 2/100 7.7/70 9.5/40 10.25/30 12.75/100 17/100
Conditions: stereoisomer not certain

Row | LC retention time [min] | SMILES
1 | 5.18 | CNC(=C[N+](=O)[O-])NCCSCc1ccc(CN(C)C)o1 [Ranitidine]
2 | 1.45 | Cc1cccc(Nc2ccncc2S(=O)(=O)NC(=O)NC(C)C)c1 [Torasemide]
3 | 2.76 | COC1C=COC2(C)Oc3c(C)c(O)c4c(O)c(c5c(c4c3C2=O)=NC2(CCN(CC(C)C)CC2)N=5)NC(=O)C(C)=CC=CC(C)C(O)C(C)C(O)C(C)C(OC(C)=O)C1C (centres undefined) [Rifabutin]
4 | 2.14 | O=C1C2CCCCC2C(=O)N1CCCCN1CCN(c2nsc3ccccc23)CC1 (centres undefined) [Perospirone]
5 | 1.11 | CC(C)C1=CC2=CCC3C(C)(C(=O)O)CCCC3(C)C2CC1 (centres undefined) [Abietic acid]
6 | 4.93 | CN1CC(=O)NC1=N [Creatinine]
7 | 1.08 | O=c1ccc2ccccc2o1 [Coumarin]
8 | 0.98 | N#Cc1ccc(C(c2ccc(C#N)cc2)n2cncn2)cc1 [Letrozol]
9 | 7.86 | NCCCC(=O)O [gamma-Aminobutyric Acid]
10 | 7.24 | NCCCCC(=O)O [5-Aminovaleric acid]
11 | 1.26 | Nc1ccc2cn[nH]c2c1 [6-Aminoindazole]
12 | 8.88 | Nc1ncnc2c1ncn2C1OC(CO)C(OP(=O)(O)O)C1O (centres undefined) [Adenosine-3-monophosphate]
13 | 7.73 | CC(=O)Nc1ccc(OC2OC(C(=O)O)C(O)C(O)C2O)cc1 (centres undefined) [Acetaminophen glucuronide]
14 | 1.05 | c1ccc2c(-c3nccs3)c[nH]c2c1 [Camalexin]
15 | 5.84 | Cn1c(N)nc2c(ncn2C2OC(CO)C(O)C2O)c1=O (centres undefined) [1-Methylguanosine]
16 | 9.33 | NC(CC(=O)O)C(=O)O (centres undefined) [Aspartic acid]
17 | 4.99 | O=c1[nH]cnc2nc[nH]c12 [Hypoxanthine]
18 | 1.07 | COc1c2ccoc2cc2oc(=O)ccc12 [5-Methoxypsoralen]
19 | 4.65 | CN1CCN(c2c(F)cc3c(=O)c(C(=O)O)cn4c3c2SCC4)CC1 [Rufloxacin]
20 | 6.99 | CNC(C(=O)O)C(C)C (centres undefined) [N-Methylvaline]
21 | 2.3 | CN1CCN(C2=Nc3cc(F)ccc3Cc3ccccc32)CC1 [Fluperlapine]

Row | LC retention time [min] | SMILES
22 | 1.77 | CC(C)C(=O)O [Isobutyric acid]
23 | 9.54 | NCCCCC(N)C(=O)O (centres undefined) [Lysine]
24 | 6.45 | CNC(CC(C)C)C(=O)O (centres undefined) [N-Methylleucine]
25 | 4.89 | CCCCCC(=O)O [Hexanoic acid]
26 | 8.98 | NC(CCC(=O)NC(CS)C(=O)O)C(=O)O (centres undefined) [gamma-Glutamyl-cysteine]
27 | 9.72 | NC(Cc1ccc(OP(=O)(O)O)cc1)C(=O)O (centres undefined) [Phosphotyrosine]
28 | 2.34 | CC(C)CCCC(C)C1CCC2C3CC=C4CC(OC(=O)NCCN(C)C)CCC4(C)C3CCC12C (stereo not drawn) [3-beta-Cholest-5-en-3-yl [2-(dimethylamino)ethyl]carbamate]
29 | 4.24 | CCOC(=O)C1=C(COCCN)NC(C)=C(C(=O)OC)C1c1ccccc1Cl (centres undefined) [Amlodipine]
30 | 1.6 | Cc1[nH]c(=O)c(C#N)cc1-c1ccncc1 [Milrinone]
31 | 7.11 | CN1CCCC1C(=O)O (centres undefined) [N-Methylproline]
32 | 1.19 | c1ccc(-c2ccc(C(c3ccccc3)n3ccnc3)cc2)cc1 (centres undefined) [Bifonazole]
33 | 2.31 | O=C(CCCN1CCC(O)(c2ccc(Cl)cc2)CC1)c1ccc(F)cc1 [Haloperidol]
34 | 2.56 | CN(C)CCC(c1ccc(Br)cc1)c1ccccn1 (centres undefined) [Dexbrompheniramine]
35 | 0.93 | CCN(CC)C(=S)SSC(=S)N(CC)CC [Disulfiram]
36 | 3.73 | CCCC(=O)NCC(=O)O [Butyrylglycine]
37 | 7.54 | Nc1nc(=O)n(C2OC(CO)C(O)C2O)cc1CO (centres undefined) [5-Hydroxymethylcytidine]
38 | 7.92 | Nc1nc2c(c(=O)[nH]1)N(C=O)C(CNc1ccc(C(=O)NC(CCC(=O)O)C(=O)O)cc1)CN2 (centres undefined) [Folinic acid]
39 | 1.33 | O=C(O)Cc1c[nH]c2ccccc12 [3-Indoleacetic acid]
40 | 2.76 | CCN1CCCC1CNC(=O)c1cc(S(=O)(=O)CC)c(N)cc1OC (centres undefined) [Amisulpride]
41 | 9.6 | NC(=O)CCC(NC(=O)C(N)CCC(=O)O)C(=O)O (centres undefined) [Glu-Gln]
42 | 2.02 | CN1C(CC(=O)c2ccccc2)CCCC1CC(O)c1ccccc1 (centres undefined) [Lobeline A]

Row | LC retention time [min] | SMILES
43 | 1.03 | COc1cc(C)nc(-n2nc(C)cc2OC)n1 [Mepirizole]
44 | 8.11 | CC(=O)NC(CC(=O)O)C(=O)NC(CCC(=O)O)C(=O)O (centres undefined) [N-Acetyl-Asp-Glu]
45 | 2.3 | O=C(O)C(O)c1ccc(O)c(O)c1 (centres undefined) [3,4-Dihydroxymandelic acid]
46 | 0.97 | CS(=O)(=O)c1ccc(C2=C(c3ccccc3)C(=O)OC2)cc1 [Rofecoxib]
47 | 1.38 | O=C(O)C=Cc1ccc(O)cc1 [p-Coumaric acid]
48 | 2.15 | CN1CCN(CCCN2c3ccccc3Sc3ccc(C(F)(F)F)cc32)CC1 [Trifluoperazine]
49 | 4.87 | CC(C)NCC(O)c1ccc(NS(C)(=O)=O)cc1 (centres undefined) [Sotalol]
50 | 4.88 | CCCC(=O)OCC [Ethylbutanoate]
51 | 7.74 | C[N+](C)(C)C(Cc1c[nH]c(=S)[nH]1)C(=O)[O-] (centres undefined) [Ergothioneine]
52 | 9.1 | CN(C)C(CCCN=C(N)N)C(=O)O (centres undefined) [N,N-Dimethylarginine]
53 | 2.25 | CC(CN(C)C)CN1c2ccccc2CCc2ccccc21 (centres undefined) [Trimipramine]
54 | 9.23 | NCCOP(=O)(O)O [O-Phosphocolamine]
55 | 1.33 | CC(C=CC1(O)C(C)=CC(=O)CC1(C)C)=CC(=O)O (centres undefined) [Abscisic acid]
56 | 4.47 | CCCCCCCCCCCCCCCC(O)C(N)CO (centres undefined) [Dihydrosphingosine]
57 | 8.47 | CCCCCCCCO [Octanol]
58 | 1.27 | COc1cccc(C(=O)O)c1N [2-Amino-3-methoxybenzoic acid]
59 | 1.33 | Cn1nnc2c(C(N)=O)ncn2c1=O [Temozolomide]
60 | 0.89 | CCCCCCCCCCCC(CC1OC(=O)C1CCCCCC)OC(=O)C(CC(C)C)NC=O (centres undefined) [Orlistat]
61 | 1.18 | COc1ccc2[nH]cc(CCO)c2c1 [5-Methoxytryptophol]
62 | 1.91 | CN(CCCN1c2ccccc2CCc2ccccc21)CC(=O)c1ccc(Cl)cc1 [Lofepramine]
63 | 7.62 | Nc1ncnc2c1ncn2C1OC2COP(=O)(O)OC2C1O (centres undefined) [Adenosine 3',5'-cyclic monophosphate]

Row | LC retention time [min] | SMILES
64 | 6.61 | CS(=O)CCCCC(=NO)SC1OC(CO)C(O)C(O)C1O (centres undefined) [Desulfo Glucoraphanin]
65 | 4.06 | COC1C(O)C(CO)OC1n1cnc2c(=O)[nH]cnc21 (centres undefined) [2'-O-Methylinosine]
66 | 1.12 | Cc1ncc([N+](=O)[O-])n1CC(C)O (centres undefined) [Secnidazole]
67 | 1.7 | CCCc1nc(C)c2c(=O)[nH]c(-c3cc(S(=O)(=O)N4CCN(CC)CC4)ccc3OCC)nn12 [Vardenafil]
68 | 1.81 | CC(C)=CCNc1ncnc2nc[nH]c12 [Isopentenyladenine]
69 | 8.99 | OCC(O)C(O)C(OC1OC(CO)C(O)C(O)C1O)C(O)CO (centres undefined) [Lactitol]
70 | 8.75 | NC(=O)CCC(NC(=O)C1CCCN1)C(=O)O (centres undefined) [Pro-Gln]
71 | 9.54 | NCCC(=O)NC(Cc1cnc[nH]1)C(=O)O (centres undefined) [Carnosine]
72 | 1.15 | CC(=O)NCC1CN(c2ccc(N3CCOCC3)c(F)c2)C(=O)O1 (centres undefined) [Linezolide]
73 | 1.44 | O=C1OC(C(O)CO)C(O)=C1O (centres undefined) [Ascorbic acid]
74 | 1.21 | Cc1ncsc1CCO [4-Methyl-5-thiazoleethanol]
75 | 9.29 | C[N+](C)(C)CCCCC(N)C(=O)[O-] (centres undefined) [NEPSILON,NEPSILON,NEPSILON-TRIMETHYLLYSINE]
76 | 1.1 | O=C(C=CC=Cc1ccc2c(c1)OCO2)N1CCCCC1 [Piperine]
77 | 0.99 | CCCCCCCCCCCCCCCCCC(=O)OCC(O)CO (centres undefined) [1-Monostearin]
78 | 2.57 | Cc1cn(C2CC(O)C(CO)O2)c(=O)[nH]c1=O (centres undefined) [Thymidine]
79 | 3.33 | Nc1c2c(nc3c1CCC3)CCCC2 [Ipidacrine]
80 | 5.93 | OCCc1c[nH]c2ccc(O)cc12 [5-Hydroxytryptophol]
81 | 4.55 | CC(C)(O)CC(=O)O [beta-Hydroxyisovaleric acid]

Row | SMILES | LC retention time [min]
82 | Oc1ccc2c3c1OC1C(O)CCC4(O)C(C2)N(CC2CCC2)CCC314 (centres undefined) [Nalbuphine] | 5.25
83 | CCCCCCCCCOc1ccc2[nH]cc(CCN)c2c1 [5-Nonyloxytryptamine] | 3.4
84 | CC1C(c2ccccc2)OCCN1C (centres undefined) [Phendimetrazine] | 2.52
85 | CC=C1N(C)C(C)CC1(c1ccccc1)c1ccccc1 (centres undefined) [EDDP] | 1.9
86 | CNc1ccccc1 [N-Methylaniline] | 1.06
87 | O=C(O)CNC(=O)c1cccnc1 [Nicotinoylglycine] | 7.08
88 | COc1cc(N)c(Cl)cc1C(=O)NC1CN2CCC1CC2 (centres undefined) [Zacopride] | 4.66
89 | c1ccc(Cn2ccnc2)cc1 [1-Benzylimidazole] | 1.63
90 | CCNC(C)Cc1ccc2c(c1)OCO2 (centres undefined) [3,4-Methylenedioxyethamphetamine] | 2.94
91 | C#CCN(C)C(C)Cc1ccccc1 (centres undefined) [Selegiline] | 1.5
92 | CCC(=O)OC(Cc1ccccc1)(c1ccccc1)C(C)CN(C)C (centres undefined) [Propoxyphene] | 2.01
93 | CNc1ccccc1C(=O)O [N-Methylanthranilic acid] | 1.22
94 | NCCc1c[nH]c2ccccc12 [Tryptamine] | 6.92
